Test results published in patent publication US20020010166A1, “CRYSTALLINE PROGESTAGENS” (priority 1997, published 2002).
Values joined by “and” are separate entries in the source; they are usually repeats but may differ in a detail not shown here. Identical values can stand only once.

How the values were obtained:
[1] = Differential Scanning Calorimetry (DSC) of crystalline forms of Org 30659; format: physicochemical; conditions: determined by DSC, heating rate 5.0° C./min, from the melting peak
Method: Differential Scanning Calorimetry (DSC)
DSC curves were recorded using a Seiko DSC-120 instrument. Closed aluminium pans having a volume of 5 μl were used in combination with a nitrogen flow of 50 ml/min. The heating rate was 5.0° C./min.
DSC curves of crystalline forms of Org 30659. The horizontal axis represents the temperature in ° C. (heating), the vertical axis represents heat in μW or mW.

[2] = Relative stability of crystalline forms on heating / in boiling water; format: physicochemical; conditions: at temperatures below 155° C., including subjection to boiling water

| SMILES | thermodynamic stability, enthalpy ΔH [1] | relative stability of the crystalline form [2] | thermodynamic stability, enthalpy ΔH ([1]; listed as form C) [mJ/mg] |
| --- | --- | --- | --- |
| C#C[C@]1(O)C=C[C@H]2[C@@H]3CCC4=CC(=O)CC[C@@H]4[C@H]3C(=C)C[C@@]21C [form (B), (17α)-17-hydroxy-11-methylene-19-norpregna-4,15-diene-20-yn-3-one] | 70 mJ/mg and 70.4 mJ/mg | – | – |
| C#C[C@]1(O)C=C[C@H]2[C@@H]3CCC4=CC(=O)CC[C@@H]4[C@H]3C(=C)C[C@@]21C [form (A), (17α)-17-hydroxy-11-methylene-19-norpregna-4,15-diene-20-yn-3-one] | 84.3 mJ/mg and 84 mJ/mg | the most stable one | – |
| C#C[C@]1(O)C=C[C@H]2[C@@H]3CCC4=CC(=O)CC[C@@H]4[C@H]3C(=C)C[C@@]21C [form (C), (17α)-17-hydroxy-11-methylene-19-norpregna-4,15-diene-20-yn-3-one] | 71.9 mJ/mg | – | 71.9 |
